According to patent publication US20160039825A1 (BIOGEN MA INC., priority 2013, published 2016):

These compounds were tested against T1, Human ATX protein (Homo sapiens, UniProt Q13822) (assay: Autotaxin (ATX) assay, FRET with FS-3 substrate). Settings: upper bound bins (no greater than 100, 250 or 500 nM); FS-3 2 μM, ATX 1.0 μg/mL.
T1 construct: made in house
Format: biochemical
From the text: ATX (Autotaxin) is a 125 KDa glycoprotein with lysophospholipase D (LPLD) activity that generates the bioactive lipid lysophosphatidic acid (LPA) from lysophosphatidylcholine (LPC). The ATX biochemical assay utilizes a FRET (fluorescence resonance energy transfer) technology platform. The fluorescence signal of FRET substrate FS-3 is quenched due to intra-molecular FRET of a fluorophore to a non-fluorescing quencher (Ferguson, C. G., et al., Org Lett. 2006 May 11; 8(10): 2023-2026, which is incorporated by reference in its entirety). ATX catalyzes the hydrolysis of the substrate which separates the dabsyl quencher from the fluorescein reporter, which becomes fluorescent. The reaction is monitored by a SpectraMax M5 (Molecular Devices, Sunnyvale, Calif.) with at excitation wavelength 485 nm and emission wavelength […].
Fatty acid free-BSA (Sigma A8806): 10 mg/mL in H2O, stored at 4° C.
2×ATX assay buffer: 100 mM Tris, 280 mM NaCl, 10 mM KCl, 2 mM CaCl2, 2 mM MgCl2, pH 7.4.
Human ATX protein: expressed and purified in house. Stored at −80° C.
Substrate FS-3 (Echelon, L-2000): 100 μg in 77.74 μL H2O (1 mM stock), stored at −20° C.
384-well flat bottom plates—Corning #3575.
Compound dilution—All compounds were provided at 10 mM in 100% DMSO. In the first well, 2 μL of 10 mM compound was added to 78 μL of DMSO (1:40 dilution). In subsequent wells 3-fold dilution (total 10 dilutions) were performed.
1×ATX assay buffer was made up with a final concentration of 1 mg/mL fatty acid free-BSA using 2×ATX assay buffer, 10 mg/ml fatty acid free-BSA and ddH2O.
ATX protein was diluted with 1×ATX assay buffer to a concentration of 1.32 μg/mL (1.32×). 38 μL was added per well to the assay plate. The final concentration of ATX in the reaction as 1.0 μg/mL.
2 μL per well of compounds was transferred to provide the desired concentration. The plate was centrifuged, then incubated at room temperature for 30 minutes on the shaker.
FS-3 was diluted with 1×ATX assay buffer to a concentration of FS-3 of 10 μM (5×). Then, 10 μL was added per well to the assay plate. The final concentration of FS-3 in the reaction was 2 μM. The plate was centrifuged. The plate was kept shaking at room temperature for 2 hours. Because FS-3 substrate is light sensitive, plates were kept covered and protected from light.
Fluorescence was measured using SpectraMax M5 (excitation at 485 nm/emission at 538 nm, top read).

Row | SMILES | IC50 [nM]
1 | O=C(OCc1cc(Cl)cc(C(F)(F)F)c1)N1CCCn2nc(C3CN4CCC[C@H]4CO3)cc2C1 (mixture of isomers) [Example 251, 3-Chloro-5-(trifluoromethyl)benzyl 2-((8aS)-hexahydro-1H-pyrrolo[2,1-c][1,4]oxazin-3-yl)-7,8-dihydro-4H-pyrazolo[1,5-a][1,4]diazepine-5(6H)-carboxylate] | ≤ 100
2 | O=C(OCc1cc(Cl)cc(C(F)(F)F)c1)N1CCCn2nc(C3CN4CCCC[C@H]4CO3)cc2C1 (mixture of isomers) [Example 253, 3-chloro-5-(trifluoromethyl)benzyl 2-((9aS)-octahydropyrido[2,1-c][1,4]oxazin-3-yl)-7,8-dihydro-4H-pyrazolo[1,5-a][1,4]diazepine-5(6H)-carboxylate] | ≤ 100
3 | O=C(OCc1cc(Cl)cc(C(F)(F)F)c1)N1CCCn2nc(C3CN4CCCC[C@@H]4CO3)cc2C1 (mixture of isomers) [Example 254, 3-chloro-5-(trifluoromethyl)benzyl 2-((9aR)-octahydropyrido[2,1-c][1,4]oxazin-3-yl)-7,8-dihydro-4H-pyrazolo[1,5-a][1,4]diazepine-5(6H)-carboxylate] | ≤ 100
4 | O=C(OCc1cc(Cl)cc(C(F)(F)F)c1)N1CCCn2nc(C3CN4CCC[C@@H]4CO3)cc2C1 (single isomer, unassigned) [Example 252A] | ≤ 100
5 | CCOC(=O)c1cc2n(n1)CCCN(C(=O)OCc1cc(Cl)cc(Cl)c1)C2 [Example 1, 5-(3,5-Dichlorobenzyl) 2-ethyl 7,8-dihydro-4H-pyrazolo[1,5-a][1,4]diazepine-2,5(6H)-dicarboxylate] | ≤ 500
6 | CCOC(=O)c1cc2n(n1)CCCN(C(=O)OCc1cc(C(F)(F)F)cc(C(F)(F)F)c1)C2 [Example 2, 5-(3,5-Bis(trifluoromethyl)benzyl) 2-ethyl 7,8-dihydro-4H-pyrazolo[1,5-a][1,4]diazepine-2,5(6H)-dicarboxylate] | ≤ 100
7 | CCOC(=O)c1cn2c(n1)CN(C(=O)OCc1cc(C(F)(F)F)cc(C(F)(F)F)c1)CC2 [Example 3, 7-(3,5-Bis(trifluoromethyl)benzyl) 2-ethyl 5,6-dihydroimidazo[1,2-a]pyrazine-2,7(8H)-dicarboxylate] | ≤ 100
8 | O=C(O)c1cc2n(n1)CCCN(C(=O)OCc1cc(Cl)cc(Cl)c1)C2 [Example 7, 5-(((3,5-Dichlorobenzyl)oxy)carbonyl)-5,6,7,8-tetrahydro-4H-pyrazolo[1,5-a][1,4]diazepine-2-carboxylic acid] | ≤ 100
9 | O=C(O)c1cc2n(n1)CCCN(C(=O)OCc1cc(C(F)(F)F)cc(C(F)(F)F)c1)C2 [Example 8, 5-(((3,5-Bis(trifluoromethyl)benzyl)oxy)carbonyl)-5,6,7,8-tetrahydro-4H-pyrazolo[1,5-a][1,4]diazepine-2-carboxylic acid] | ≤ 100
10 | O=C(O)c1cnc2n1CCN(C(=O)OCc1cc(C(F)(F)F)cc(C(F)(F)F)c1)CC2 [Example 10, 7-(((3,5-Bis(trifluoromethyl)benzyl)oxy)carbonyl)-6,7,8,9-tetrahydro-5H-imidazo[1,2-d][1,4]diazepine-3-carboxylic acid] | ≤ 500
11 | O=C(OCc1cc(Cl)cc(Cl)c1)N1CCCn2nc(C(=O)N3C4CCCC3CCC4)cc2C1 [Example 12, 3,5-Dichlorobenzyl 2-(9-azabicyclo[3.3.1]nonane-9-carbonyl)-7,8-dihydro-4H-pyrazolo[1,5-a][1,4]diazepine-5(6H)-carboxylate] | ≤ 100
12 | CC(C)(C)NC(=O)c1cc2n(n1)CCCN(C(=O)OCc1cc(Cl)cc(Cl)c1)C2 [Example 14, 3,5-Dichlorobenzyl 2-(tert-butylcarbamoyl)-7,8-dihydro-4H-pyrazolo[1,5-a][1,4]diazepine-5(6H)-carboxylate] | ≤ 250
13 | O=C(NC1CCC1)c1cc2n(n1)CCCN(C(=O)OCc1cc(Cl)cc(Cl)c1)C2 [Example 15, 3,5-Dichlorobenzyl 2-(cyclobutylcarbamoyl)-7,8-dihydro-4H-pyrazolo[1,5-a][1,4]diazepine-5(6H)-carboxylate] | ≤ 100
14 | O=C(NC1CCCC1)c1cc2n(n1)CCCN(C(=O)OCc1cc(Cl)cc(Cl)c1)C2 [Example 16, 3,5-Dichlorobenzyl 2-(cyclopentylcarbamoyl)-7,8-dihydro-4H-pyrazolo[1,5-a][1,4]diazepine-5(6H)-carboxylate] | ≤ 100
15 | O=C(NC1CCCCC1)c1cc2n(n1)CCCN(C(=O)OCc1cc(Cl)cc(Cl)c1)C2 [Example 17, 3,5-Dichlorobenzyl 2-(cyclohexylcarbamoyl)-7,8-dihydro-4H-pyrazolo[1,5-a][1,4]diazepine-5(6H)-carboxylate] | ≤ 100
16 | O=C(OCc1cc(Cl)cc(Cl)c1)N1CCCn2nc(C(=O)N3CCCC3)cc2C1 [Example 18, 3,5-Dichlorobenzyl 2-(pyrrolidine-1-carbonyl)-7,8-dihydro-4H-pyrazolo[1,5-a][1,4]diazepine-5(6H)-carboxylate] | ≤ 100
17 | O=C(OCc1cc(Cl)cc(Cl)c1)N1CCCn2nc(C(=O)N3CCCCC3)cc2C1 [Example 19, 3,5-Dichlorobenzyl 2-(piperidine-1-carbonyl)-7,8-dihydro-4H-pyrazolo[1,5-a][1,4]diazepine-5(6H)-carboxylate] | ≤ 100
18 | O=C(OCc1cc(Cl)cc(Cl)c1)N1CCCn2nc(C(=O)N3CCC(F)CC3)cc2C1 [Example 20, 3,5-Dichlorobenzyl 2-(4-fluoropiperidine-1-carbonyl)-7,8-dihydro-4H-pyrazolo[1,5-a][1,4]diazepine-5(6H)-carboxylate] | ≤ 100
19 | CC1CCN(C(=O)c2cc3n(n2)CCCN(C(=O)OCc2cc(Cl)cc(Cl)c2)C3)CC1 [Example 21, 3,5-Dichlorobenzyl 2-(4-methylpiperidine-1-carbonyl)-7,8-dihydro-4H-pyrazolo[1,5-a][1,4]diazepine-5(6H)-carboxylate] | ≤ 100
20 | O=C(OCc1cc(Cl)cc(Cl)c1)N1CCCn2nc(C(=O)N3CCC(C(F)(F)F)CC3)cc2C1 [Example 22, 3,5-Dichlorobenzyl 2-(4-(trifluoromethyl)piperidine-1-carbonyl)-7,8-dihydro-4H-pyrazolo[1,5-a][1,4]diazepine-5(6H)-carboxylate] | ≤ 100
21 | O=C(OCc1cc(Cl)cc(Cl)c1)N1CCCn2nc(C(=O)N3CCOCC3)cc2C1 [Example 23, 3,5-Dichlorobenzyl 2-(morpholine-4-carbonyl)-7,8-dihydro-4H-pyrazolo[1,5-a][1,4]diazepine-5(6H)-carboxylate] | ≤ 100
22 | O=C(OCc1cc(Cl)cc(Cl)c1)N1CCCn2nc(C(=O)N3CCNCC3)cc2C1 [Example 24, 3,5-Dichlorobenzyl 2-(piperazine-1-carbonyl)-7,8-dihydro-4H-pyrazolo[1,5-a][1,4]diazepine-5(6H)-carboxylate] | ≤ 100
23 | CN1CCN(C(=O)c2cc3n(n2)CCCN(C(=O)OCc2cc(Cl)cc(Cl)c2)C3)CC1 [Example 25, 3,5-Dichlorobenzyl 2-(4-methylpiperazine-1-carbonyl)-7,8-dihydro-4H-pyrazolo[1,5-a][1,4]diazepine-5(6H)-carboxylate] | ≤ 100
24 | NC1CCN(C(=O)c2cc3n(n2)CCCN(C(=O)OCc2cc(Cl)cc(Cl)c2)C3)CC1 [Example 26, 3,5-Dichlorobenzyl 2-(4-aminopiperidine-1-carbonyl)-7,8-dihydro-4H-pyrazolo[1,5-a][1,4]diazepine-5(6H)-carboxylate] | ≤ 100
25 | CNC(=O)c1cc2n(n1)CCCN(C(=O)OCc1cc(Cl)cc(Cl)c1)C2 [Example 27, 3,5-Dichlorobenzyl 2-(methylcarbamoyl)-7,8-dihydro-4H-pyrazolo[1,5-a][1,4]diazepine-5(6H)-carboxylate] | ≤ 100
26 | CN(C)C(=O)c1cc2n(n1)CCCN(C(=O)OCc1cc(Cl)cc(Cl)c1)C2 [Example 28, 3,5-Dichlorobenzyl 2-(dimethylcarbamoyl)-7,8-dihydro-4H-pyrazolo[1,5-a][1,4]diazepine-5(6H)-carboxylate] | ≤ 100
27 | CCNC(=O)c1cc2n(n1)CCCN(C(=O)OCc1cc(Cl)cc(Cl)c1)C2 [Example 29, 3,5-Dichlorobenzyl 2-(ethylcarbamoyl)-7,8-dihydro-4H-pyrazolo[1,5-a][1,4]diazepine-5(6H)-carboxylate] | ≤ 100
